The values that follow come from patent US20130190289A1, “COMPOUNDS AND METHODS FOR THE TREATMENT OR PREVENTION OF FLAVIVIRUS INFECTIONS” (priority 2010, published 2013).

The test system of data set [1] is HCV replicon (genotype 1b) in Huh7 cell line ET. Kind of data set: microbe, parasite or virus in culture. In kind it is cell-based, HCV genotype 1b.
The subject of data set [2] is Huh-7 ET, Molt-4, DU-145, Hep-G2 and SH-SY5Y cells. Put plainly: [3H]Thymidine incorporation assay (cell toxicity). To be noted: read-out: [3H]Thymidine CC50; [3H]thymidine incorporation, cell toxicity; mean value class; cell line not given.
Data set [3] deals with HCV sub-genomic replicon of genotype 1a in replicon cell line W11.8. Put plainly: microbe, parasite or virus in culture. In kind it is cell-based, HCV genotype 1a. The settings on record: Hepatitis C virus, W11.8, 96 h, read-out: HCV-Replicon-ELISA-1a IC50. An excerpt:
This procedure below describes the HCV replicon assay using a Huh7 hepatoma cell line harboring a highly cell culture-adapted replicon (genotype 1b) (hereafter named cell line ET). The ET cells contained the highly cell culture-adapted replicon I389luc-ubi-neo/NS3-3′/5.1 construct that carried, in addition to the neomycin gene, an integrated copy to the firefly luciferase gene (Krieger, N; Lohmann, V; Bartenschlager, R. Enhancement of hepatitis C virus RNA replication by cell culture-adaptive mutations. J. Virol. 2001, 75, 4614-4624). A replicon cell line W11.8, containing the 1a genotype of HCV was also used. These two cell lines (genotype 1b and 1a) allowed measurement of RNA replication and translation by measuring luciferase activity (against genotype 1b) or by measuring the NS5A level using the ELISA assay (against genotype 1a). […] ET cell lines were maintained in cultures at a sub-confluent level (<85%). The culture media used for cell passaging consisted of DMEM (Gibco BRL Laboratories, Mississauga, ON, Canada) supplemented with 10% fetal bovine serum with 1% penicilin/streptomycin, 1% glutamine, 1% sodium pyruvate, 1% non-essential amino acids, and 180 µg/ml of G418 final concentration.
Replicon cell lines W11.8 containing a sub-genomic replicon of genotype 1a was used for the HCV Replicon Cell-Based detection using the ELISA. The RNA replication in presence of different drug concentrations was indirectly measured in these cell lines by the level of NS5A protein content upon drug treatment for four days. The NS5A is a non-structural protein of HCV and is used as marker of HCV replication in this assay.
For the treatment of the cells with the testing drug, Culture medium was removed from the 175 cm^2 T-flask by aspiration. Cell monolayer was rinsed with 10-20 mL of PBS 1× at room temperature. PBS was removed by aspiration. Cells were trypsinized using 3 mL of Trypsin (0.25%)/EDTA (0.1%) solution. Flasks were incubated at 37° C. (incubator) for 7 minutes. Complete medium (9 mL) without G418 is then added. Cell clumps were disrupted by pipetting up and down several times.
The cell suspension was then transferred to a 50 mL Falcon polypropylene tube. Cells were then counted several times using the haemocytometer. Cells were diluted at 50,000 cells/mL with complete DMEM without G418, then transferred into a sterile reservoir. Using a multichannel pipet, approximately 5,000 viable cells (100 μL) were plated per well in a white opaque 96-well microtiter plate. After an incubation period of 2-4 hours at 37° C. in a 5% CO2 incubator, compounds were added at various concentrations.
Drugs were resuspended in DMSO at a stock concentration of 100 mM or 10 mM. […] Then, drugs were diluted at twice the final concentration in the same medium (without G418) described earlier, in sterile 96-deep well plate and according to a particular template (see Appendix). One volume (100 μL) of each drug dilution was then added to each well that contains cells.
Sixteen wells were used as control (0% inhibition) without drug. Eight wells were used as background control (100% inhibition) containing 2 μM (final concentration) of the reference compound. […] Values from 100% inhibited wells were averaged and used as the background value. Cells are further incubated for 4 days at 37° C. in a 5% CO2 incubator.
For the measurement of NS5A protein content, following the incubation time of four days, the media was throwed into an appropriate waste container by inverting the plate. Any residual liquid was removed by tapping gently on absorbent paper several times. The plates were then washed once with 150 μL of PBS per well, and then incubated for 5 minutes at room temperature on a shaker (500 rpm).

The nature of data set [4]: [3H]Thymidine incorporation assay (cell toxicity). To be noted: human.
Setting [5] is: read-out: HCV-Replicon-(Luci-ET) 1b_IC50.
[6] abbreviates: Hepatitis C virus, Huh-7, 96 h, read-out: HCV-Replicon (Luci-ET)-1b_IC50.

Molecules are shown by their SMILES. Like-named read-outs stand apart in the source and are kept apart here.

As a reminder, the CC50 is the concentration at which the toxic effect on the cells reaches its halfway point. Turning to `CO[C@H](C)[C@@H](C(=O)N(C)C)N(c1cc(C#CC(C)(C)C)sc1C(=O)O)C(=O)[C@H]1CC[C@H](C)CC1` [Compound 57], the IC50 in data set [1] (setting [5]) was < 100 nM. Also, the CC50 in data set [2] is > 100000 nM.
The matching figures for `COC(C)C(C(=O)N1CCOCC1)N(C(=O)C1CCC(C)CC1)c1cc(C#CC(C)(C)C)sc1C(=O)O` (stereo not drawn) [Compound 65]: < 100 nM and > 100000 nM.
Taken in the same sequence, the figures for `CC(C)C#Cc1cc(N(CC(=O)N2CC3(COC3)C2)C(=O)C2CCC(C)CC2)c(C(=O)O)s1` (stereo not drawn) [Compound 71] were < 100 nM and > 100000 nM.
In the case of `CC(C)(C)C#Cc1cc(N(CC(=O)N2CCOCC2)C(=O)c2ccc(Cl)cc2Cl)c(C(=O)O)s1` [Compound 124, 3-[(2,4-dichlorobenzoyl)-(2-morpholino-2-oxo-ethyl)amino]-5-(3,3-dimethylbut-1-ynyl)thiophene-2-carboxylic acid], the IC50 in data set [3] and in data set [1] (setting [6]) was < 100 nM in each case. For the same compound, the CC50 at 72 h in data set [4] was > 100000 nM.
With `CC(C)CC#Cc1cc(N(CC(=O)N2CCOCC2)C(=O)[C@H]2CC[C@H](C)CC2)c(C(=O)O)s1` [Compound 130, 3-[(trans-4-methylcyclohexanecarbonyl)-(2-morpholino-2-oxo-ethyl)amino]-5-(4-methylpent-1-ynyl)thiophene-2-carboxylic acid], the IC50 in data set [3] and in data set [1] (setting [6]) was 100 to 1000 nM each time. In addition, the CC50 at 72 h in data set [4] was > 100000 nM.
As for `CCN1CC[C@H](N(c2cc(C#CC(C)(C)C)sc2C(=O)O)C(=O)[C@H]2CC[C@H](C)CC2)C1=O` [Compound 131, 5-(3,3-dimethylbut-1-ynyl)-3-[[(3S)-1-ethyl-2-oxo-pyrrolidin-3-yl]-(trans-4-methylcyclohexanecarbonyl)amino]thiophene-2-carboxylic acid], the IC50 in data set [3] and in data set [1] (setting [6]) was < 100 nM each time. The 50% cytotoxic concentration (CC50) at 72 h in data set [4] is > 100000 nM.
With `COCCN1CC[C@H](N(c2cc(C#CC(C)(C)C)sc2C(=O)O)C(=O)[C@H]2CC[C@H](C)CC2)C1=O` [Compound 133, 5-(3,3-Dimethylbut-1-ynyl)-3-[[(3S)-1-(2-methoxyethyl)-2-oxo-pyrrolidin-3-yl]-(trans-4-methylcyclohexanecarbonyl)amino]thiophene-2-carboxylic acid], the IC50 in data set [3] and in data set [1] (setting [6]) was < 100 nM throughout. Further, the CC50 at 72 h in data set [4] was > 100000 nM.
Take `CCN1CCCC[C@H](N(c2cc(C#CC(C)(C)C)sc2C(=O)O)C(=O)[C@H]2CC[C@H](C)CC2)C1=O` [Compound 134, (S)-5-(3,3-Dimethylbut-1-ynyl)-3-((trans)-4-methyl-N-(1-ethyl-2-oxoazepan-3-yl)cyclohexanecarboxamido)thiophene-2-carboxylic acid]: the IC50 in data set [3] and in data set [1] (setting [6]) was < 100 nM throughout. For the same compound, in data set [4], the CC50 at 72 h lay within 10000 to 100000 nM.
Turning to `CN1CCOC[C@H](N(c2cc(C#CC(C)(C)C)sc2C(=O)O)C(=O)[C@H]2CC[C@H](C)CC2)C1=O` [Compound 136, (S)-5-(3,3-Dimethylbut-1-ynyl)-3-[(trans)-4-methyl-N-(4-methyl-5-oxo-1,4-oxazepan-6-yl)cyclohexanecarboxamido]thiophene-2-carboxylic acid], the IC50 in data set [3] and in data set [1] (setting [6]) was < 100 nM throughout. The CC50 at 72 h in data set [4] was > 100000 nM.
For `CN1CCCC[C@H](N(C(=O)c2ccc(Cl)cc2Cl)c2cc(C#CC(C)(C)C)sc2C(=O)O)C1=O` [Compound 137, (S)-5-(3,3-Dimethylbut-1-ynyl)-3-[(2,4-dichlorobenzoyl)-N-(1-methyl-2-oxoazepan-3-yl)amino]-thiophene-2-carboxylic acid], the IC50 in data set [3] and in data set [1] (setting [6]) was < 100 nM throughout. Further, the CC50 at 72 h in data set [4] is > 100000 nM.
For the compound `COCCN1CCCC[C@H](N(c2cc(C#CC(C)(C)C)sc2C(=O)O)C(=O)[C@H]2CC[C@H](C)CC2)C1=O` [Compound 138, (S)-5-(3,3-Dimethylbut-1-ynyl)-3-((trans)-4-methyl-N-(1-(2-methoxyethyl)-2-oxoazepan-3-yl)cyclohexanecarboxamido)thiophene-2-carboxylic acid], the IC50 in data set [3] and in data set [1] (setting [6]) was < 100 nM throughout. In addition, the CC50 at 72 h in data set [4] is > 100000 nM.
Turning to `CC(C)(C)C#Cc1cc(N(C(=O)[C@H]2CC[C@H](C)CC2)[C@H]2CCN(CCO)C2=O)c(C(=O)O)s1` [Compound 139, 5-(3,3-Dimethylbut-1-ynyl)-3-[[(3S)-1-(2-hydroxyethyl)-2-oxo-pyrrolidin-3-yl]-(trans-4-methylcyclohexanecarbonyl)amino]thiophene-2-carboxylic acid], the IC50 in data set [3] and in data set [1] (setting [6]) was < 100 nM throughout. For the same compound, the half-maximal cytotoxic concentration (CC50) at 72 h in data set [4] is > 100000 nM.
As for `CN1CCC[C@H](N(C(=O)c2ccc(Cl)cc2Cl)c2cc(C#CC(C)(C)C)sc2C(=O)O)C1=O` [Compound 140, (S)-5-(3,3-Dimethylbut-1-ynyl)-3-[(2,4-dichlorobenzoyl)-N-(1-methyl-2-oxopiperidin-3-yl)amino]-thiophene-2-carboxylic acid], the IC50 in data set [3] and in data set [1] (setting [6]) was < 100 nM throughout. In data set [4], the CC50 at 72 h is > 100000 nM.
With `CC(C)N1CC[C@H](N(c2cc(C#CC(C)(C)C)sc2C(=O)O)C(=O)[C@H]2CC[C@H](C)CC2)C1=O` [Compound 142, 5-(3,3-dimethylbut-1-ynyl)-3-[[(3S)-1-isopropyl-2-oxo-pyrrolidin-3-yl]-(trans-4-methylcyclohexanecarbonyl)amino]thiophene-2-carboxylic acid], the IC50 in data set [3] and in data set [1] (setting [6]) was < 100 nM throughout. In data set [4], the CC50 at 72 h lay in the range of 10000 to 100000 nM.
`CC[C@@H](C(=O)N1CCOCC1)N(C(=O)c1ccc(Cl)cc1Cl)c1cc(C#CC(C)(C)C)sc1C(=O)O` [Compound 143, (S)-5-(3,3-Dimethylbut-1-ynyl)-3-[(2,4-dichlorobenzoyl)-[1-(morpholine-4-carbonyl)propyl]amino]-thiophene-2-carboxylic acid]: the IC50 in data set [3] and in data set [1] (setting [6]) was < 100 nM throughout. For the same compound, the CC50 at 72 h in data set [4] fell in the range of 10000 to 100000 nM.
As for `CC(C)N1CCCC[C@H](N(c2cc(C#CC(C)(C)C)sc2C(=O)O)C(=O)[C@H]2CC[C@H](C)CC2)C1=O` [Compound 146, (S)-5-(3,3-Dimethylbut-1-ynyl)-3-((trans)-4-methyl-N-(1-isopropyl-2-oxoazepan-3-yl)cyclohexanecarboxamido)thiophene-2-carboxylic acid], the IC50 in data set [3] and in data set [1] (setting [6]) was < 100 nM each time. The same compound came in with a half-maximal cytotoxic concentration (CC50) at 72 h in data set [4] of 10000 to 100000 nM.
For `CCN1CCC[C@H](N(c2cc(C#CC(C)(C)C)sc2C(=O)O)C(=O)[C@H]2CC[C@H](C)CC2)C1=O` [Compound 148, (S)-5-(3,3-Dimethylbut-1-ynyl)-3-((trans)-4-methyl-N-(1-ethyl-2-oxopiperidin-3-yl)cyclohexanecarboxamido)thiophene-2-carboxylic acid], the IC50 in data set [3] and in data set [1] (setting [6]) was < 100 nM throughout. For the same compound, the CC50 at 72 h in data set [4] was > 100000 nM.
On to `CC(C)N1CCC[C@H](N(c2cc(C#CC(C)(C)C)sc2C(=O)O)C(=O)[C@H]2CC[C@H](C)CC2)C1=O` [Compound 149, (S)-5-(3,3-Dimethylbut-1-ynyl)-3-((trans)-4-methyl-N-(1-isopropyl-2-oxopiperidin-3-yl)cyclohexanecarboxamido)thiophene-2-carboxylic acid], for which the IC50 in data set [3] and in data set [1] (setting [6]) was < 100 nM in each case. In data set [4], this compound registered a CC50 at 72 h of 10000 to 100000 nM.
